Experimental data taken from patent US8426345B2, “Method of drug design” (Alchemia Limited, priority 2005, dated 2013).

Molecular target: T1, Human SST5 somatostatin receptor (Homo sapiens, UniProt P35346)
T1 construct: expressed in transfected cells; host or cells: HEK-293 EBNA cells (membranes)
Assay: Filter plate radio-ligand binding assay for SST5 receptor ([125I]SST-14 displacement)
Conditions: for % SST5 radio-ligand binding displaced at conc 0.25: conc 0.25 μM; for % SST5 radio-ligand binding displaced at conc 1.0: conc 1.0 μM; for % SST5 radio-ligand binding displaced at conc 0.5: conc 0.5 μM; for % SST5 radio-ligand binding displaced at conc 10: conc 10 μM

[1] = compound conc 50 μM, 2P library
[2] = compound conc 250 μM, 2P library
[3] = compound conc 500 μM, 2P library

T1 sequence (P35346 whole entry): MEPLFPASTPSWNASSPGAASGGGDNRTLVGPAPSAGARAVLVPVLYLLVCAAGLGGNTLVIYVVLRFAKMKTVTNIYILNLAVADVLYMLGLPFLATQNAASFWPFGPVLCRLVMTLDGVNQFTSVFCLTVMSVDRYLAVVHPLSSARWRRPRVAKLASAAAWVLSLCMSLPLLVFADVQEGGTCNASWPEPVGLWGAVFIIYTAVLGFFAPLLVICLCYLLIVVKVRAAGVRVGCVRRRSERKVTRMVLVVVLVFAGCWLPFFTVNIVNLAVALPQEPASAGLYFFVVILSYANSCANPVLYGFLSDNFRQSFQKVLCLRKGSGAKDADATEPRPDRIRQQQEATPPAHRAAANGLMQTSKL

Structure (SMILES) | % SST5 radio-ligand binding displaced at conc 50 [1] | % SST5 radio-ligand binding displaced at conc 250 [2] | % SST5 radio-ligand binding displaced at conc 500 [3] | % SST5 radio-ligand binding displaced at conc 0.25 (3P library) | % SST5 radio-ligand binding displaced at conc 1.0 (3P library) | also measured
CO[C@@H]1[C@H](O)[C@@H](COCc2ccc3ccccc3c2)O[C@@H](SC)[C@@H]1NC(=O)CCCN [Compound 42] | − (% SST5 radio-ligand binding displaced at cone (μM) −<40%) | − (% SST5 radio-ligand binding displaced at cone (μM) −<40%) | + (% SST5 radio-ligand binding displaced at cone (μM) 60>+>40%) |  |  | 
COC[C@H]1O[C@@H](SC)[C@H](NC(=O)CCCN)[C@H](OCc2ccc(Cl)cc2)[C@@H]1O [Compound 43] | − (% SST5 radio-ligand binding displaced at cone (μM) −<40%) | − (% SST5 radio-ligand binding displaced at cone (μM) −<40%) | − (% SST5 radio-ligand binding displaced at cone (μM) −<40%) |  |  | 
COC[C@H]1O[C@@H](OCc2ccc(Cl)cc2)[C@H](NC(=O)CCCN)[C@H](OC)[C@@H]1O [Compound 44] | − (% SST5 radio-ligand binding displaced at cone (μM) −<40%) | − (% SST5 radio-ligand binding displaced at cone (μM) −<40%) | ++ (% SST5 radio-ligand binding displaced at conc (μM) >60%) |  |  | 
COC[C@H]1O[C@@H](OCc2ccc3ccccc3c2)[C@H](NC(=O)CCCN)[C@H](OC)[C@@H]1O [Compound 45] | − (% SST5 radio-ligand binding displaced at cone (μM) −<40%) | + (% SST5 radio-ligand binding displaced at cone (μM) 60>+>40%) | ++ (% SST5 radio-ligand binding displaced at conc (μM) >60%) |  |  | 
COC[C@H]1O[C@@H](SC)[C@H](NC(=O)CCN)[C@H](OCc2ccc3ccccc3c2)[C@@H]1O [Compound 57] | − (% SST5 radio-ligand binding displaced at cone (μM) −<40%) | − (% SST5 radio-ligand binding displaced at cone (μM) −<40%) | − (% SST5 radio-ligand binding displaced at cone (μM) −<40%) |  |  | 
COC[C@H]1O[C@@H](SC)[C@H](NC(=O)CCCN)[C@H](OCc2ccc3ccccc3c2)[C@@H]1O [Compound 58] | − (% SST5 radio-ligand binding displaced at cone (μM) −<40%) | − (% SST5 radio-ligand binding displaced at cone (μM) −<40%) | − (% SST5 radio-ligand binding displaced at cone (μM) −<40%) |  |  | 
COC[C@H]1O[C@H](OCc2ccc3ccccc3c2)[C@H](NC(=O)CCN)[C@H](OC)[C@@H]1O [Compound 59] | + (% SST5 radio-ligand binding displaced at cone (μM) 60>+>40%) | ++ (% SST5 radio-ligand binding displaced at conc (μM) >60%) | ++ (% SST5 radio-ligand binding displaced at conc (μM) >60%) |  |  | 
COC[C@H]1O[C@H](OCc2ccc3ccccc3c2)[C@H](NC(=O)CCN)[C@@H](OC)[C@@H]1O [Compound 60] |  |  |  |  |  | % SST5 radio-ligand binding displaced at conc 50 (conc 50 μM, 3P library): − (% SST5 radio-ligand binding displaced at cone (μM) −<40%); % SST5 radio-ligand binding displaced at conc 250 (conc 250 μM, 3P library): + (% SST5 radio-ligand binding displaced at cone (μM) 60>+>40%); % SST5 radio-ligand binding displaced at conc 500 (conc 500 μM, 3P library): ++ (% SST5 radio-ligand binding displaced at conc (μM) >60%)
COC[C@H]1O[C@@H](OCc2ccc3ccccc3c2)[C@H](NC(=O)CCN)[C@@H](OC)[C@@H]1O [Compound 61] |  |  |  |  |  | % SST5 radio-ligand binding displaced at conc 50 (conc 50 μM, 3P library): − (% SST5 radio-ligand binding displaced at cone (μM) −<40%); % SST5 radio-ligand binding displaced at conc 250 (conc 250 μM, 3P library): + (% SST5 radio-ligand binding displaced at cone (μM) 60>+>40%); % SST5 radio-ligand binding displaced at conc 500 (conc 500 μM, 3P library): ++ (% SST5 radio-ligand binding displaced at conc (μM) >60%)
COC[C@H]1O[C@@H](OCc2ccc3ccccc3c2)[C@H](NC(=O)CCN)[C@H](OC)[C@@H]1O [Compound 62] |  |  |  |  |  | % SST5 radio-ligand binding displaced at conc 50 (conc 50 μM, 3P library): − (% SST5 radio-ligand binding displaced at cone (μM) −<40%); % SST5 radio-ligand binding displaced at conc 250 (conc 250 μM, 3P library): ++ (% SST5 radio-ligand binding displaced at conc (μM) >60%); % SST5 radio-ligand binding displaced at conc 500 (conc 500 μM, 3P library): ++ (% SST5 radio-ligand binding displaced at conc (μM) >60%)
COC[C@H]1O[C@H](OCc2ccc3ccccc3c2)[C@H](NC(=O)CCN)[C@H](OC)[C@@H]1O [Compound 63] |  |  |  |  |  | % SST5 radio-ligand binding displaced at conc 50 (conc 50 μM, 3P library): + (% SST5 radio-ligand binding displaced at cone (μM) 60>+>40%); % SST5 radio-ligand binding displaced at conc 250 (conc 250 μM, 3P library): ++ (% SST5 radio-ligand binding displaced at conc (μM) >60%); % SST5 radio-ligand binding displaced at conc 500 (conc 500 μM, 3P library): ++ (% SST5 radio-ligand binding displaced at conc (μM) >60%)
NCCC(=O)NC1C(OCc2ccc3ccccc3c2)OC(COCc2ccc3ccccc3c2)C(O)C1OCc1ccc2ccccc2c1 (stereo not drawn) [Compound 79] |  |  |  | − (% SST5 radio-ligand binding displaced at cone (μM) −<40%) | ++ (% SST5 radio-ligand binding displaced at conc (μM) >60%) | 
NCCC(=O)NC1C(OCc2ccc3ccccc3c2)OC(COCc2ccc3ccccc3c2)C(O)C1OCc1ccc2ccccc2c1 (stereo not drawn) [Compound 80] |  |  |  | − (% SST5 radio-ligand binding displaced at cone (μM) −<40%) | ++ (% SST5 radio-ligand binding displaced at conc (μM) >60%) | 
NCCC(=O)NC1C(OCc2ccc3ccccc3c2)OC(COCc2ccccc2)C(O)C1OCc1ccc2ccccc2c1 (stereo not drawn) [Compound 81] |  |  |  | − (% SST5 radio-ligand binding displaced at cone (μM) −<40%) | ++ (% SST5 radio-ligand binding displaced at conc (μM) >60%) | 
NCCC(=O)NC1C(OCc2ccc3ccccc3c2)OC(COCc2ccccc2)C(O)C1OCc1ccc2ccccc2c1 (stereo not drawn) [Compound 82] |  |  |  | + (% SST5 radio-ligand binding displaced at cone (μM) 60>+>40%) | ++ (% SST5 radio-ligand binding displaced at conc (μM) >60%) | 
NCCC(=O)NC1C(OCc2ccc3ccccc3c2)OC(COCc2ccc(Cl)cc2)C(O)C1OCc1ccc2ccccc2c1 (stereo not drawn) [Compound 83] |  |  |  | − (% SST5 radio-ligand binding displaced at cone (μM) −<40%) | ++ (% SST5 radio-ligand binding displaced at conc (μM) >60%) | 
NCCC(=O)NC1C(OCc2ccc3ccccc3c2)OC(COCc2ccc(Cl)cc2)C(O)C1OCc1ccc2ccccc2c1 (stereo not drawn) [Compound 84] |  |  |  | − (% SST5 radio-ligand binding displaced at cone (μM) −<40%) | ++ (% SST5 radio-ligand binding displaced at conc (μM) >60%) | 
COC[C@H]1O[C@@H](OCc2ccc3ccccc3c2)[C@H](NC(=O)CCN)[C@H](OCc2ccc3ccccc3c2)[C@@H]1O [Compound 85] |  |  |  |  |  | % SST5 radio-ligand binding displaced at conc 0.5 (3P library): ++ (% SST5 radio-ligand binding displaced at conc (μM) >60%); % SST5 radio-ligand binding displaced at conc 10 (3P library): ++ (% SST5 radio-ligand binding displaced at conc (μM) >60%)
COC[C@H]1O[C@H](OCc2ccc3ccccc3c2)[C@H](NC(=O)CCN)[C@H](OCc2ccc3ccccc3c2)[C@@H]1O [Compound 86] |  |  |  |  |  | % SST5 radio-ligand binding displaced at conc 0.5 (3P library): ++ (% SST5 radio-ligand binding displaced at conc (μM) >60%); % SST5 radio-ligand binding displaced at conc 10 (3P library): ++ (% SST5 radio-ligand binding displaced at conc (μM) >60%)
COC[C@H]1O[C@H](OCc2ccc3ccccc3c2)[C@H](NC(=O)CCN)[C@@H](OCc2ccc3ccccc3c2)[C@@H]1O [Compound 98] |  |  |  | + (% SST5 radio-ligand binding displaced at cone (μM) 60>+>40%) | ++ (% SST5 radio-ligand binding displaced at conc (μM) >60%) | 
